Test results: patent US12448388B2, “PRMT5 inhibitors and uses thereof” (Gilead Sciences, Inc., priority 2023, dated 2025)
Where “and” joins values, the source holds several entries; their conditions need not be identical. Equal values may be shown once.

What was measured:
[1] = test system: Calu-6 (lung, adenocarcinoma; MTAP-WT); assay: In vitro cell viability assay (CellTiter-Glo, 9 days), Calu-6; type: cell-based; conditions: Homo sapiens, Calu-6, 216 h, 9-day treatment
Method: Some Compounds of the Disclosure were tested in Calu-6 (Vendor: ATCC; Cat #HTB-56; Description: lung, adenocarcinoma), LU99 (Vendor: JCRB; Cat #JCRB0080; Description: lung, giant cell carcinoma), SW780 (Vendor: ATCC; Cat #CRL-2169; Description: bladder, urothelial carcinoma), and BxPC-3 (Vendor: ATCC; Cat #CRL-1687; Description: pancreas, adenocarcinoma) cellular viability assays according to the general protocol. Seeded cells into 96-well plate and incubated overnight. Seeded an additional 10 wells per cell line in an additional 96-well plate for assessing Time Zero luminescence and incubated overnight. To treatment plates, added compounds into each well using Tecan D300e dispenser (nine three-fold dilutions starting at […]) and incubated for 9 days. Time Zero (no compound treatment, luminescence assessed on day 1) and 9-day treatment (luminescence assessed on day 10) plates were assessed using the same CellTiter-Glo® substrate protocol. Thawed CellTiter-Glo® Buffer and lyophilized CellTiter-Glo® substrate and equilibrated to room temperature prior to use. Transferred 100 ml CellTiter-Glo® Buffer into amber bottle containing CellTiter-Glo® substrate to reconstitute the lyophilized enzyme/substrate mixture. For Time Zero and 9-day treatment plates, removed all plating media. Added 100 μl fresh media/well. Added 100 μl CellTiter-Glo® Reagent per well. Mixed contents for 10 min on an orbital shaker to lyse cells. Recorded luminescence with Perkin Elmer Envision 2105 machine. Analyzed the data with GraphPad software.

[2] = Hepatocyte stability assay, dog; type: in vitro ADME; conditions: Beagle Dog
Method: (§1) BioreclamationIVT (Baltimore, MD) provided the cryopreserved hepatocytes, hepatocyte thawing (HT) medium, and Krebs-Henseleit buffer (KHB) medium. The stock solution concentration was 1 M in DMSO and was then diluted further in acetonitrile/water (1:1 v/v). All other chemicals were purchased from Sigma-Aldrich (St. Louis, MO) or Thermo Fisher Scientific (Waltham, MA).
(§2) The quench solution used to stop reactions in the hepatocyte incubations was comprised of 100% (v/v) acetonitrile. Internal Standard/Quench (IS/Q) solution used to stop reactions with the positive control also contained 200 nM Labetalol.
(§3) Metabolic Stability in Cryopreserved Hepatocytes: Test compounds, or the positive control metabolic substrate, was incubated in suspensions of cryopreserved hepatocytes at a final concentration of 1 μM. Vials containing cryopreserved hepatocytes were removed from liquid nitrogen and immediately immersed in a 37° C. water bath. The vials were swirled gently until the contents had thawed. They were then immediately emptied into 48 mL of pre-warmed thawing medium in a 50 mL conical tube. Cells remaining in the vial were re-suspended with 1.0 mL of pre-warmed thawing medium and added to the conical tube. The tube was capped and then gently inverted several times to re-suspend the hepatocytes. The cell suspension was centrifuged at 500×g for 10 minutes at room temperature and the supernatant discarded. The cell pellet was loosened by gently swirling the centrifuge tube. Non-supplemented KHB medium was added to obtain the appropriate target cell density. The viabilities of all cell preparations were ≥85%, assessed by Trypan blue dye exclusion.
(§4) For incubations, aliquots of hepatocyte suspension (250 μL containing a cell concentration of 2×10^6 cells/mL) were added to 250 μL of 2 μM substrate (test compound or positive control) in supplemented KHB in duplicate wells in a 24-well plate. Final concentration in the incubations were 1×10^6 cells/mL and 1 μM substrate. A cell-free control incubation (KHB only) was also included. The incubations were carried out with gentle shaking in a 37° C. incubator under a humid atmosphere of 95% air/5% CO2 (v/v). Aliquots (100 μL) were removed after 0, 1, 3, and 6 hours and added to 200 μL quenching solution. The samples were then placed on a shaker for 10 min followed by centrifugation at 3000×g for 20 min. The supernatant was transferred to a new plate and diluted with 100 μL of water to reduce the organic content and then placed on a shaker for 10 mins. Samples were injected and analyzed with methods described below.
(§5) Liquid Chromatography: Quantification of positive control and test compound was performed by analyte/internal standard peak area ratios (PAR) measured on a Thermo Scientific™ Q Exactive™ Hybrid Quadrupole-Orbitrap Mass Spectrometer MS/MS with an electrospray interface operating in positive ion mode. The mass spectrometer was coupled to a Dionex Ultimate® 3000 HPLC system. Samples (10 μL aliquots) were injected with a Leap Technologies HTC PAL autosampler. For positive control, the column used was a Thermo Scientific™ Hypersil GOLD™ HPLC column ([…], 50×2.1 mm). Mobile phase A consisted of 95% (v/v) water, 5% (v/v) acetonitrile, and contained 0.1% (v/v) formic acid (FA). Mobile phase B consisted of 95% (v/v) acetonitrile, 5% (v/v) water, and contained 0.1% (v/v) FA. Elution was achieved, at a flow rate of 0.5 mL/min, by a series of linear gradients: initial condition was 5% B at 0 min, isocratic for 20 seconds; then linear gradient to 95% B over 90 seconds, followed by isocratic for 60 seconds at 95% B, and re-equilibrated to initial conditions over 70 seconds.
(§6) Metabolic stabilities of positive control and test compound were determined by measuring the rates of disappearance of the parent with time by determining the % of parent remaining at time t (Ct) {Obach 1997}.
(§7) Data (% of parent remaining) were plotted on a semi-log scale and fitted using an exponential fit: […]

[3] = Hepatocyte stability assay, rat; type: in vitro ADME; conditions: Sprague-Dawley Rat
Method: as §1, §2, §3, §4, §5, §6, §7

SMILES: Nc1nc2cnc(C(=O)N3CC4(CC4)C[C@@H]4Oc5cc(C(F)(F)F)ccc5[C@@H]43)cc2n2cncc12 [Ff-648, (4-aminoimidazo[1,5-a]pyrido[3,4-e]pyrazin-8-yl)((4aS,9bS)-7-(trifluoromethyl)-4a,9b-dihydro-2H-spiro[benzofuro[3,2-b]pyridine-3,1′-cyclopropan]-1(4H)-yl)methanone]
- GI50 [1]: 1.66 µM

SMILES: Nc1nc2cnc(C(=O)N3CCC[C@@H]4Oc5cc(C(F)(F)F)ccc5[C@@H]43)cc2n2cncc12 [Ff-110, (4-aminoimidazo[1,5-a]pyrido[3,4-e]pyrazin-8-yl)((4aS,9bS)-7-(trifluoromethyl)-3,4,4a,9b-tetrahydrobenzofuro[3,2-b]pyridin-1(2H)-yl)methanone]
- GI50 [1]: 1.55 µM

SMILES: Nc1nc2cnc(C(=O)N3CCC[C@@H]4Oc5cc(C(F)(F)F)cc(F)c5[C@@H]43)cc2n2cncc12 (single isomer, unassigned) [Fg-53]
- GI50 [1]: 1.26 µM
- Predicted Hepatocyte CL [2]: 10.2 mL/min/kg
- Predicted Hepatocyte CL [3]: 18.7 mL/min/kg

SMILES: C[C@H]1CN(C(=O)c2cc3c(cc2F)nc(N)c2cncn23)[C@H]2c3ccc(C(F)(F)F)cc3C[C@H]2O1 (single isomer, unassigned) [Ff-81]
- GI50 [1]: > 10 µM
- Predicted Hepatocyte CL [2]: 3.5 mL/min/kg
- Predicted Hepatocyte CL [3]: 18.3 mL/min/kg

SMILES: Nc1nc2cnc(C(=O)N3CCC[C@@H]4Oc5cc(OC(F)(F)F)cc(F)c5[C@@H]43)cc2n2cncc12 (single isomer, unassigned) [Fg-55]
- GI50 [1]: 2.51 µM
- Predicted Hepatocyte CL [2]: 12.5 mL/min/kg
- Predicted Hepatocyte CL [3]: 15.5 mL/min/kg

SMILES: Nc1nc2cc(F)c(C(=O)N3CCC[C@@H]4Oc5cc(C(F)(F)F)ccc5[C@@H]43)cc2n2cncc12 [Ff-104, (4-amino-7-fluoroimidazo[1,5-a]quinoxalin-8-yl)((4aS,9bS)-7-(trifluoromethyl)-3,4,4a,9b-tetrahydrobenzofuro[3,2-b]pyridin-1(2H)-yl)methanone]
- GI50 [1]: 2.15 µM
- Predicted Hepatocyte CL [2]: 6.33 mL/min/kg and 11.2 mL/min/kg
- Predicted Hepatocyte CL [3]: 27.7 mL/min/kg and 20.7 mL/min/kg

SMILES: Cc1ncc2c(N)nc3cnc(C(=O)N4CCC[C@@H]5Oc6cc(OC(F)(F)F)ccc6[C@@H]54)cc3n12 [Ff-340, (4-amino-1-methylimidazo[1,5-a]pyrido[3,4-e]pyrazin-8-yl)((4aS,9bS)-7-(trifluoromethoxy)-3,4,4a,9b-tetrahydrobenzofuro[3,2-b]pyridin-1(2H)-yl)methanone]
- GI50 [1]: 2.95 µM
- Predicted Hepatocyte CL [2]: 12 mL/min/kg
- Predicted Hepatocyte CL [3]: 19.8 mL/min/kg

SMILES: Nc1nc2ccc(C(=O)N3CCC[C@@H]4Oc5cc(C(F)(F)F)ccc5[C@@H]43)cc2n2cncc12 [Ff-111, (4-aminoimidazo[1,5-a]quinoxalin-8-yl)((4aS,9bS)-7-(trifluoromethyl)-3,4,4a,9b-tetrahydrobenzofuro[3,2-b]pyridin-1(2H)-yl)methanone]
- GI50 [1]: > 6.4 µM
- Predicted Hepatocyte CL [2]: 12.3 mL/min/kg
- Predicted Hepatocyte CL [3]: 27.8 mL/min/kg

SMILES: Cc1ncn2c1c(N)nc1cnc(C(=O)N3CCC[C@@H]4Oc5cc(C(F)(F)F)ccc5[C@@H]43)cc12 [Ff-499, (4-amino-3-methylimidazo[1,5-a]pyrido[3,4-e]pyrazin-8-yl)((4aS,9bS)-7-(trifluoromethyl)-3,4,4a,9b-tetrahydrobenzofuro[3,2-b]pyridin-1(2H)-yl)methanone]
- Predicted Hepatocyte CL [2]: 15.3 mL/min/kg
- Predicted Hepatocyte CL [3]: 37.2 mL/min/kg

SMILES: Nc1nc2cnc(C(=O)N3CCC[C@@H]4Oc5cc(OC(F)(F)F)ccc5[C@@H]43)cc2n2cncc12 [Ff-341, (4-aminoimidazo[1,5-a]pyrido[3,4-e]pyrazin-8-yl)((4aS,9bS)-7-(trifluoromethoxy)-3,4,4a,9b-tetrahydrobenzofuro[3,2-b]pyridin-1(2H)-yl)methanone]
- GI50 [1]: 2.44 µM
- Predicted Hepatocyte CL [2]: 12.3 mL/min/kg
- Predicted Hepatocyte CL [3]: 16 mL/min/kg

SMILES: C[C@@H]1CN(C(=O)c2cc3c(cc2F)nc(N)c2cncn23)[C@H]2c3ccc(OC(F)(F)F)cc3C[C@H]2O1 (single isomer, unassigned) [Ff-183]
- GI50 [1]: 2.15 µM
